Test results published in EP1433789A1, “Pyrrolopyrazines and their use as selective apoptosis inducers” (Aponetics AG, priority 2002, dated 2004).

Assays:
HBL 100 = assay: Hoechst 33342 nuclear staining (Table 3); type: cell-based, human; design: key: 0 relating to no activity; 1 relating to weak activity comprising less than 50% of the cells; score 2 relating to strong activity comprising more than 50% of the cells
Procedure, shortened: (§1)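 Adherent cells (3-5×10^3, pre-spread 24 h) or suspension cells (8-10×10^3) treated with compounds at 10, 3, 1 and 0.3 µM for 24 or 48 h, then Hoechst 33342 stained for 30 min. Apoptotic nuclear morphology scored by fluorescence microscopy: 0 none, 1 weak (<50% cells), 2 strong (>50% cells).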

HT 1080 = assay: Hoechst 33342 nuclear staining (Table 3); type: cell-based, human; design: key: 0 relating to no activity; 1 relating to weak activity comprising less than 50% of the cells; score 2 relating to strong activity comprising more than 50% of the cells
Procedure, shortened: as §1

Ramos [1] = assay: Hoechst 33342 nuclear staining (Table 3); type: cell-based, human; design: key: 0 relating to no activity; 1 relating to weak activity comprising less than 50% of the cells; score 2 relating to strong activity comprising more than 50% of the cells
Procedure, shortened: as §1

HeLa [2] = assay: MTS proliferation assay; type: cell-based; conditions: Homo sapiens, 72 h incubation
Procedure, shortened: (§2)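 Cells (1.5*10^3–10^4/well) seeded 24 h before treatment, then exposed 72 h to compound at 10, 3, 1 or 0.3 µM final (≤5% DMSO in added medium). Viability by MTS reagent, 3 h further incubation, absorbance at 492 nm.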

Jurkat [3] = assay: MTS proliferation assay; type: cell-based; conditions: Homo sapiens, 72 h incubation
Procedure, shortened: as §2

K562 = assay: MTS proliferation assay; type: cell-based; conditions: Homo sapiens, K562, 72 h incubation
Procedure, shortened: as §2

HeLa [4] = assay: AnnexinV/7-AAD staining; type: cell-based, human; conditions: 10 µM, 24 h treatment
Procedure, shortened: (§3)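 Cells treated with compound at 10 µM final for 24 h, then stained with AnnexinV-GST/anti-GST Alexa 488 and 7-AAD and analysed by flow cytometry. Percent positive cells scored as 0 (<10%), 1 (10–50%) or 2 (>50%).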

Jurkat [5] = assay: AnnexinV/7-AAD staining; type: cell-based, human; conditions: 10 µM, 24 h treatment
Procedure, shortened: as §3

Ramos [6] = assay: AnnexinV/7-AAD staining; type: cell-based, human; conditions: 10 µM, 24 h treatment
Procedure, shortened: as §3

HeLa [7] = assay: PI staining for cell cycle distribution; type: cell-based, human; design: key: 0 indicates no occurrence at all; 1 for weak; 2 for strong occurrence; conditions: HeLa 10 µM, 24 h
Experimental: (§4) 1 - 2*10^5 cells are seeded into 24 well tissue culture plates and incubated for 24 h prior to compound addition. Compounds are added for 24 h in a final concentration of 3 µM or 10 µM. Adherent cells are harvested by trypsinization. The cell suspensions are fixed by adding 2 parts ice cold ethanol 100% while vortexing. Then the samples are stored for > 2 h at-20°C. Subsequently the cells are washed with PBS once and resuspended in 250 µl PBS containing 50 µg/ml PI (Calbiochem # 537059), then the samples are incubated at 37°C for 30 minutes and subsequently analyzed on a FACSCalibur™ monitoring linear PI fluorescence activity on FL2.. The readout allows the detection of a possible direct or indirect influence of the tested compounds on the cell cycle. The following events can occur: a) Generation of a subG1 peak indicative for DNA fragmentation, b) increase of the cell population arrested in G2M phase. Both events are scored by 1 for weak and 2 for strong occurrence. 0 indicates no occurrence at all. […]

Jurkat [8] = assay: PI staining for cell cycle distribution; type: cell-based, human; design: key: 0 indicates no occurrence at all; 1 for weak; 2 for strong occurrence; conditions: Jurkat 3 uM, 24 h
Experimental: as §4

COc1cc2c(cc1OC)-c1c(Br)c3nc4ccccc4nc3n1C(C)C2 (stereo not shown) [compound 10]
Hoechst 33342 nuclear staining (fraction of apoptotic nuclei), score (HBL 100; HBL 100, 24h, 0.3 µM): 1 (1 relating to weak activity comprising less than 50% of the cells)
Hoechst 33342 nuclear staining (fraction of apoptotic nuclei), score (HBL 100; HBL 100, 24h, 1 µM): 2 (score 2 relating to strong activity comprising more than 50% of the cells)
Hoechst 33342 nuclear staining (fraction of apoptotic nuclei), score (HBL 100; HBL 100, 24h, 3 µM): 2 (score 2 relating to strong activity comprising more than 50% of the cells)
Hoechst 33342 nuclear staining (fraction of apoptotic nuclei), score (HBL 100; HBL 100, 24h, 10 µM): 2 (score 2 relating to strong activity comprising more than 50% of the cells)
Hoechst 33342 nuclear staining (fraction of apoptotic nuclei), score (HBL 100; HBL 100, 48h, 0.3 µM): 2 (score 2 relating to strong activity comprising more than 50% of the cells)
Hoechst 33342 nuclear staining (fraction of apoptotic nuclei), score (HBL 100; HBL 100, 48h, 1 µM): 2 (score 2 relating to strong activity comprising more than 50% of the cells)
Hoechst 33342 nuclear staining (fraction of apoptotic nuclei), score (HBL 100; HBL 100, 48h, 3 µM): 2 (score 2 relating to strong activity comprising more than 50% of the cells)
Hoechst 33342 nuclear staining (fraction of apoptotic nuclei), score (HBL 100; HBL 100, 48h, 10 µM): 2 (score 2 relating to strong activity comprising more than 50% of the cells)
Hoechst 33342 nuclear staining (fraction of apoptotic nuclei), score (HT 1080; HT 1080, 24h, 0.3 µM): 0
Hoechst 33342 nuclear staining (fraction of apoptotic nuclei), score (HT 1080; HT 1080, 24h, 1 µM): 1 (1 relating to weak activity comprising less than 50% of the cells)
Hoechst 33342 nuclear staining (fraction of apoptotic nuclei), score (HT 1080; HT 1080, 24h, 3 µM): 2 (score 2 relating to strong activity comprising more than 50% of the cells)
Hoechst 33342 nuclear staining (fraction of apoptotic nuclei), score (HT 1080; HT 1080, 24h, 10 µM): 2 (score 2 relating to strong activity comprising more than 50% of the cells)
Hoechst 33342 nuclear staining (fraction of apoptotic nuclei), score (HT 1080; HT 1080, 48h, 0.3 µM): 0
Hoechst 33342 nuclear staining (fraction of apoptotic nuclei), score (HT 1080; HT 1080, 48h, 1 µM): 2 (score 2 relating to strong activity comprising more than 50% of the cells)
Hoechst 33342 nuclear staining (fraction of apoptotic nuclei), score (HT 1080; HT 1080, 48h, 3 µM): 2 (score 2 relating to strong activity comprising more than 50% of the cells)
Hoechst 33342 nuclear staining (fraction of apoptotic nuclei), score (HT 1080; HT 1080, 48h, 10 µM): 2 (score 2 relating to strong activity comprising more than 50% of the cells)
Hoechst 33342 nuclear staining (Ramos [1]; 24h, conc 0.3 (µM)): 0
Hoechst 33342 nuclear staining (Ramos [1]; 24h, conc 1 (µM)): 0
Hoechst 33342 nuclear staining (Ramos [1]; 24h, conc 3 (µM)): 0
Hoechst 33342 nuclear staining (Ramos [1]; 24h, conc 10 (µM)): 2 (score 2 relating to strong activity comprising more than 50% of the cells)
Hoechst 33342 nuclear staining (Ramos [1]; 48h, conc 0.3 (µM)): 0
Hoechst 33342 nuclear staining (Ramos [1]; 48h, conc 1 (µM)): 2 (score 2 relating to strong activity comprising more than 50% of the cells)
Hoechst 33342 nuclear staining (Ramos [1]; 48h, conc 3 (µM)): 2 (score 2 relating to strong activity comprising more than 50% of the cells)
Hoechst 33342 nuclear staining (Ramos [1]; 48h, conc 10 (µM)): 2 (score 2 relating to strong activity comprising more than 50% of the cells)
IC50 (HeLa [2]): 1 to 10 µM
IC50 (Jurkat [3]): > 10 µM
IC50 (K562): > 10 µM
percentage of positively stained cells (AnnexinV/7-AAD staining) (HeLa [4]): 2 (score 2 relates to more than 50% positivity)
percentage of positively stained cells (AnnexinV/7-AAD staining) (Jurkat [5]): 2 (score 2 relates to more than 50% positivity)
percentage of positively stained cells (AnnexinV/7-AAD staining) (Ramos [6]): 2 (score 2 relates to more than 50% positivity)
G2M (increase of the cell population arrested in G2M phase) (HeLa [7]): 0
subG1 (generation of a subG1 peak indicative for DNA fragmentation) (HeLa [7]): 0
G2M (increase of the cell population arrested in G2M phase) (Jurkat [8]): 0
subG1 (generation of a subG1 peak indicative for DNA fragmentation) (Jurkat [8]): 0
